Experimental data as given in patent US9776962B2, “Aromatic compounds with GPR40 agonistic activity” (TAKEDA PHARMACEUTICAL COMPANY LIMITED, priority 2013, dated 2017).

target: T1, human GPR40 (Homo sapiens, UniProt O14842); assay: Evaluation of human GPR40 agonist activity with increase in intracellular Ca2+ concentration as an index (FLIPR); assay type: cell-based; conditions: test compound 1 μM; CHO(dhfr−) cells stably expressing human GPR40; 100% = 10 μM compound of Example 153, 0% = DMSO
T1 construct: expressed in transfected cells
T1 sequence (O14842 whole entry): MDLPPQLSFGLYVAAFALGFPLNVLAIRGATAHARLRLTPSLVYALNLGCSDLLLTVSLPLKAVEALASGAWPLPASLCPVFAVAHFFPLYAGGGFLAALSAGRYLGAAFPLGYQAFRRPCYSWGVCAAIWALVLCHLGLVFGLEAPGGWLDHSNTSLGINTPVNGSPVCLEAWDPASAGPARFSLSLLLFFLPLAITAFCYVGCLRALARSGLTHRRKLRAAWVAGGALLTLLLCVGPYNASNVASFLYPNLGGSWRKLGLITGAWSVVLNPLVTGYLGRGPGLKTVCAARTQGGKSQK
Method: Plasmid hGPR40/pAKKO-1.11H for mammalian cells expression, wherein cDNA fragment (SEQ ID NO: 1) encoding the full-length human GPR40 was incorporated into an expression vector pAKKO-1.11H (Biochimica et Biophysica Acta vol. 1219 pp. 251-259 (1994)), was transfected into CHO-dhfr(−) cells (ATCC, CRL-9096) by using Lipofectamine 2000 (Invitrogen:11668-019). After transfection, the limiting dilution-culture method was performed to select clone in selection medium (nucleic acid-free α-MEM (Invitrogen:12561-056)) containing 10% dialyzed bovine serum (Invitrogen:26400-044)). The expression level of human GPR40 mRNA was confirmed by TaqMan PCR (Life Technologies), and the intracellular calcium mobilization activity of GPR40 ligand (γ-linolenic acid) was confirmed by FLIPR (Molecular Devices), and a clone of human GPR40 expressing CHO cells was selected.
Evaluation of Human GPR40 Agonist Activity with Increase in Intracellular Ca^2+ Concentration as an Index
CHO(dhfr−) cells that stably expressed human GPR40 were suspended in MEMα (Nikken Bio Medical Laboratory) containing 10% dialyzed bovine serum (JR Scientific), 10 mM HEPES (Life Technologies), 100 U/mL penicillin, 100 μg/mL streptomycin (Life Technologies), and plated on a 384 well black/clear cell culture plate at 10,000 cells/well. After culture overnight in a CO2 incubator at 37° C., the culture supernatant was removed, and loading buffer [Ca^2+ probe attached to Calcium Kit II-iCellux (DOJINDO) was dissolved in assay buffer (20 mM HEPES, 0.1% fatty acid-free BSA (Sigma-Aldrich), 2.5 mM probenecid (DOJINDO)-containing HESS (Life Technologies))] was added at 30 μL/well. After leaving for 1 hr at room temperature under light shielding, assay buffer containing the test compound at a final concentration of 1 μM was added at 10 μL/well in FLIPR Tetra (Molecular Devices), and the fluorescence amount was successively measured. Human GPR40 agonist activity calculated using an increase in the intracellular Ca^2+ concentration as an index, wherein the activity of 10 μM of the compound of Example 153 was 100%, and the activity when DMSO was added instead of the test compound was 0%.

Compared with COc1ccc(C(=O)N2CC(F)(F)OC(F)(F)C2)c(N2CCC(COc3cc(C(CC(=O)O)C4CC4)ccn3)CC2)c1 (stereo not shown) [Example 202, 3-cyclopropyl-3-(2-((1-(5-methoxy-2-((2,2,6,6-tetrafluoromorpholin-4-yl)carbonyl)phenyl)piperidin-4-yl)methoxy)pyridin-4-yl)propanoic acid], COc1ccc(C(=O)N(C)C2CCN(CC(F)(F)F)CC2)c(N2CCC(COc3cc(C(CC(=O)O)C4CC4)ccn3)CC2)c1 (stereo not shown) [Example 194, 3-cyclopropyl-3-(2-((1-(5-methoxy-2-(methyl(1-(2,2,2-trifluoroethyl)piperidin-4-yl)carbamoyl)phenyl)piperidin-4-yl)methoxy)pyridin-4-yl)propanoic acid] is lower in activation at 1 µM: 102% for the first, 77% for the second.

First: CCOC(CC(=O)O)c1ccnc(OCC2CCN(c3cc(OC)ccc3C(=O)N(CC(C)(C)C)c3cccc(C)n3)CC2)c1 (stereo not shown) [Example 272, 3-(2-((1-(2-((2,2-dimethylpropyl)(6-methylpyridin-2-yl)carbamoyl)-5-methoxyphenyl)piperidin-4-yl)methoxy)pyridin-4-yl)-3-ethoxypropanoic acid]
Second: COc1ccc(C(=O)N(CC(C)(C)F)c2cccc(C)n2)c(N2CCC(COc3cc(C(CC(=O)O)C4CC4)ccn3)CC2)c1 (stereo not shown) [Example 152, 3-cyclopropyl-3-(2-((1-(2-((2-fluoro-2-methylpropyl)(6-methylpyridin-2-yl)carbamoyl)-5-methoxyphenyl)piperidin-4-yl)methoxy)pyridin-4-yl)propanoic acid]
The activation at 1 µM of the first is lower: 95% for the first, 100% for the second.

Going from COc1ccc(C(=O)N(c2ccccn2)C(C)C(C)C)c(N2CCC(COc3cc(C(CC(=O)O)C4CC4)ccn3)CC2)c1 (stereo not shown) [Example 121, 3-cyclopropyl-3-(2-((1-(5-methoxy-2-((3-methylbutan-2-yl)(pyridin-2-yl)carbamoyl)phenyl)piperidin-4-yl)methoxy)pyridin-4-yl)propanoic acid] to COc1ccc(C(=O)N(CC(C)(C)C)c2ccccn2)c(N2CCC(COc3cc(C(CC(=O)O)C4CC4)ccn3)CC2)c1 (stereo not shown) [Example 111, 3-cyclopropyl-3-(2-((1-(2-((2,2-dimethylpropyl)(pyridin-2-yl)carbamoyl)-5-methoxyphenyl)piperidin-4-yl)methoxy)pyridin-4-yl)propanoic acid], the activation at 1 µM rises from 95% to 100%.

Compared with COc1ccc(C(=O)N(CC(C)(C)C)c2cc(C)ncn2)c(N2CCC(COc3cc(C(CC(=O)O)C4CC4)ccn3)CC2)c1 (stereo not shown) [Example 230, 3-cyclopropyl-3-(2-((1-(2-((2,2-dimethylpropyl) (6-methylpyrimidin-4-yl)carbamoyl)-5-methoxyphenyl)piperidin-4-yl)methoxy)pyridin-4-yl)propanoic acid], COc1ccc(C(=O)N(CC(C)(C)C)c2nccc(C)n2)c(N2CCC(COc3cc(C(CC(=O)O)C4CC4)ccn3)CC2)c1 (stereo not shown) [Example 173, 3-cyclopropyl-3-(2-((1-(2-((2,2-dimethylpropyl)(4-methylpyrimidin-2-yl)carbamoyl)-5-methoxyphenyl)piperidin-4-yl)methoxy)pyridin-4-yl)propanoic acid] is higher in activation at 1 µM: 98% for the first, 103% for the second.

First: COc1cc(N2CCC(COc3cc(C(CC(=O)O)C4CC4)ccn3)CC2)c(C(=O)N(CC(C)(C)C)c2cc(C)cc(C)n2)cn1 (stereo not shown) [Example 284, 3-cyclopropyl-3-(2-((1-(5-((2,2-dimethylpropyl) (4,6-dimethylpyridin-2-yl)-carbamoyl)-2-methoxypyridin-4-yl)-piperidin-4-yl)-methoxy)pyridin-4-yl)propanoic acid]
Second: COc1ccc(C(=O)N(CC(C)(F)F)c2cc(C)ccn2)c(N2CCC(COc3cc(C(CC(=O)O)C4CC4)ccn3)CC2)c1 (stereo not shown) [Example 147, 3-cyclopropyl-3-(2-((1-(2-((2,2-difluoropropyl)(4-methylpyridin-2-yl)carbamoyl)-5-methoxyphenyl)piperidin-4-yl)methoxy)pyridin-4-yl)propanoic acid]
The activation at 1 µM of the first is higher: 103% for the first, 97% for the second.

First: COc1ccc(C(=O)N(CC(F)(F)F)c2cncc(C(F)(F)F)c2)c(N2CCC(COc3cc(C(CC(=O)O)C4CC4)ccn3)CC2)c1 (stereo not shown) [Example 236, 3-cyclopropyl-3-(2-((1-(5-methoxy-2-((2,2,2-trifluoroethyl) (5-(trifluoromethyl)pyridin-3-yl)carbamoyl)-phenyl)piperidin-4-yl)methoxy)pyridin-4-yl)propanoic acid]
Second: COc1ccc(C(=O)N(CC(F)(F)F)c2cc(C)ccn2)c(N2CCC(COc3cc(C(CC(=O)O)C4CC4)ccn3)CC2)c1 (stereo not shown) [Example 148, 3-cyclopropyl-3-(2-((1-(5-methoxy-2-((4-methylpyridin-2-yl)(2,2,2-trifluoroethyl)carbamoyl)phenyl)piperidin-4-yl)methoxy)pyridin-4-yl)propanoic acid]
The activation at 1 µM of the first is lower: 91% for the first, 104% for the second.

Going from CCc1ccc(C(=O)N(C)c2ncco2)c(N2CCC(COc3cccc(C(CC(=O)O)C4CC4)c3)CC2)c1 (stereo not shown) [Example 57, 3-cyclopropyl-3-(3-((1-(5-ethyl-2-(methyl(1,3-oxazol-2-yl)carbamoyl)phenyl)piperidin-4-yl)methoxy)phenyl)propanoic acid] to CCc1ccc(C(=O)N(CC(C)(C)C)c2ccccn2)c(N2CCC(COc3cccc(C(CC(=O)O)C4CC4)c3)CC2)n1 (stereo not shown) [Example 60, 3-cyclopropyl-3-(3-((1-(3-((2,2-dimethylpropyl)(pyridin-2-yl)carbamoyl)-6-ethylpyridin-2-yl)piperidin-4-yl)methoxy)phenyl)propanoic acid], the activation at 1 µM falls from 58% to 52%.

Compared with COc1ccc(C(=O)N(CC(C)(C)C)c2cccc(C)n2)c(N2CCC(COc3cccc(C(CC(=O)O)C4CC4)c3F)CC2)c1 (stereo not shown) [Example 275, 3-cyclopropyl-3-(3-((1-(2-((2-dimethylpropyl)-(6-methylpyridin-2-yl)-carbamoyl)-5-methoxy-phenyl)piperidin-4-yl)methoxy)-2-fluoro-phenyl)propanoic acid], COc1ccc(C(=O)N(CC(C)(C)O)c2ccccn2)c(N2CCC(COc3cc(C(CC(=O)O)C4CC4)ccn3)CC2)c1 (stereo not shown) [Example 119, 3-cyclopropyl-3-(2-((1-(2-((2-hydroxy-2-methylpropyl)(pyridin-2-yl)carbamoyl)-5-methoxyphenyl)piperidin-4-yl)methoxy)pyridin-4-yl)propanoic acid] is lower in activation at 1 µM: 99% for the first, 52% for the second.

Going from COc1ccc(C(=O)N(CC(C)(C)C)c2ccccn2)c(N2CC[C@H](COc3cccc(C(CC(=O)O)C4CC4)c3)[C@@H](C)C2)c1 (stereo partly drawn) [Example 279, (3S)-cyclopropyl-3-(3-(((3R,4S)-1-(2-((2,2-dimethylpropyl) (pyridin-2-yl)carbamoyl)-5-methoxyphenyl)-3-methylpiperidin-4-yl)methoxy)phenyl)-propanoic acid] to CCC(C)(C)N(C(=O)c1ccc(OC)cc1N1CCC(COc2cc(C(CC(=O)O)C3CC3)ccn2)CC1)c1ccccn1 (stereo not shown) [Example 145, 3-cyclopropyl-3-(2-((1-(5-methoxy-2-((2-methylbutan-2-yl)(pyridin-2-yl)carbamoyl)phenyl)piperidin-4-yl)methoxy)pyridin-4-yl)propanoic acid], the activation at 1 µM rises from 92% to 96%.

First: COc1ccc(C(=O)N(CC(C)C)c2cccnc2OC)c(N2CCC(COc3cc(C(CC(=O)O)C4CC4)ccn3)CC2)c1 (stereo not shown) [Example 136, 3-cyclopropyl-3-(2-((1-(5-methoxy-2-((2-methoxypyridin-3-yl)(2-methylpropyl)carbamoyl)phenyl)piperidin-4-yl)methoxy)pyridin-4-yl)propanoic acid]
Second: COc1ccc(C(=O)N(CC(C)C)c2ccc(C)cn2)c(N2CCC(COc3cc(C(CC(=O)O)C4CC4)ccn3)CC2)c1 (stereo not shown) [Example 115, 3-cyclopropyl-3-(2-((1-(5-methoxy-2-((2-methylpropyl)(5-methylpyridin-2-yl)carbamoyl)phenyl)piperidin-4-yl)methoxy)pyridin-4-yl)propanoic acid]
The activation at 1 µM of the first is lower: 95% for the first, 96% for the second.

COc1ccc(C(=O)N(CC2(C)CC2)c2ccccn2)c(N2CCC(COc3cc(C(CC(=O)O)C4CC4)ccn3)CC2)c1 (stereo not shown) [Example 114, 3-cyclopropyl-3-(2-((1-(5-methoxy-2-(((1-methylcyclopropyl)methyl)(pyridin-2-yl)carbamoyl)phenyl)piperidin-4-yl)methoxy)pyridin-4-yl)propanoic acid] gave an activation at 1 µM of 98%.

In the case of COc1ccc(C(=O)N(CC(C)(C)C)c2cccc(C)n2)c(N2CCC(COc3cc(C(CC(=O)O)C4CC4)ccn3)CC2)c1 (stereo not shown) [Example 110, 3-cyclopropyl-3-(2-((1-(2-((2,2-dimethylpropyl)(6-methylpyridin-2-yl)carbamoyl)-5-methoxyphenyl)piperidin-4-yl)methoxy)pyridin-4-yl)propanoic acid], the “Activity (human GPR40 agonist activity)” value is reported as 104%.
